Patent publication US11130801B2, “Method for inhibiting platelet derived growth factor signaling with C3aR or C5aR antibodies” (CASE WESTERN RESERVE UNIVERSITY, priority 2011, dated 2021)

Key:
ECs = experiment: Proliferation of ECs in response to VEGF-A stimulation (thrombin/MMP inhibitors); format: cell-based
From the text: (§1) Since some MMPs (MMP-9) is/are constitutively expressed and prothrombin synthesis and secretion might be induced by VEGF-A, prothrombin can cleaved to thrombin by an MMP, e.g., MMP-9 and thrombin, in turn, generates C5a from locally produced C5. The MMP inhibitor alternatively could exert its inhibitory effect on VEGF-A induced EC growth by the pathway that couples C3aR/C5aR signal transduction back to VEGFR2.

T cell = T cell activation in response to anti-CD3/28 stimulation; format: cell-based
From the text: as §1

C3aR−/−C5aR−/− ECs = experiment: Growth of C3aR-/-C5aR-/- primary ECs; format: cell-based, mice; conditions: without or with added C5a
HUVEC = experiment: Complement mRNA transcripts in HUVEC by qPCR; format: cell-based; conditions: added C3a or C5a
Experimental: FIG. 33 illustrates charts showing qRT-PCR analysis of C3, factor B and factor D transcripts from HUVEC under hypoxia. A) HUVEC treated with TNF-α, IL-1, and IFN-γ. Blue bars represent samples after treatment. B-C) HUVEC stimulated with C3a (10 ng/ml for 2 hr) or C5a (10 ng/ml for 30 min) Blue bars represent control without C3a/C5a stimulation while red bars represent samples after stimulation. D) HUVEC incubated for 1 hr with FCCP+IAA. Blue bars represent control without hypoxia treatment while yellow bars represent two samples after hypoxia treatment.
We next conversely assessed how transducing C3aR/C5aR signals into ECs affects endogenous EC complement production and whether it is connected with “classical” EC responses. We incubated HUVEC with 1) inflammatory cytokines, 2) the mitochondrial uncoupler protonophore carbonyl cyanide p-(trifluoromethoxy)phenylhydrazone (FCCP)+iodoacetate (IAA) (which mimics hypoxia), or 3) C3a or C5a, after which we assayed complement mRNA transcripts by qPCR. […]
ECs and leukocytes locally synthesize C3/fB/fD/C5 and the elicited C3a/C5a signal through C3aR/C5aR on the same cells to amplify this synthesis. To determine whether ECs locally synthesize AP complement components, we added IL-1/IFN-γ/TNF-α to HUVEC, 1 hr after which we quantified C3 and fB transcripts by qPCR. […]

MS-1 ECs = experiment: Growth of MS-1 ECs with VEGF-A or IL-6; format: cell-based, murine; conditions: IL-6 alone
Experimental: FIG. 27 illustrates plots showing the growth of ECs in response to VEGF induces C3aR/C5aR signaling via an IL-6 and Stat3 dependent mechanism. VEGF-A was added to serum starved MS-1 cells in the absence or presence of anti-IL-6 neutralizing mAb (2 μg/ml) and growth was quantified at 24, […] and 72 hr.
FIG. 28 illustrates plots showing the growth of serum starved MS-1 cells in the absence or presence of C3aR-A/C5aR-A (10 ng/ml each) and IL-6 (10 ng/ml) at 24, 48 and 72 hr.
For studies with bEnd.3 and MS-1 cells, 5×10^4 cells were plated in 24-well plates and allowed to adhere for 24 hr. Following culturing in 0.5% FBS with DMEM for another 24 hours, the cells were treated as described in the FIG. legends. Growth was quantified manually at 24, 48 and 72 hr with trypan blue. At least 95% of cells were viable in all experiments. VEGF-A was used at a concentration of 30 ng/ml, C3a and C5a at 1 ug/ml, and […] at I ug/ml.
Numerous past studies have linked VEGF with both IL-6 and p-Stat3 our prior studies by ourselves has shown that C5a induces IL-6 and that IL-6 signaling is interconnected with C3aR/C5aR signaling. To determine if the linkage between VEGF and C3aR/C5aR signaling in ECs involves IL-6, we incubated MS-1 ECs with 1) VEGF-A alone, IL-6 alone, or VEGF-A plus anti-IL-6 mAb, or with 2) IL-6 alone or IL-6 plus C3aR-A/C5aR-A, and assayed cell growth. […]

Stat3 = Stat3 phosphorylation in serum starved MS-1 cells; format: cell-based, murine; conditions: growth factor alone
Experimental: FIG. 29 illustrates a chart showing phosphor-Stat3 of serum starved MS-1 cells incubated for 10 min at 37° C. with VEGF-A or IL-6 in the absence or presence of anti-IL-6 mAb or C3aR-A/C5aR-A.
Numerous past studies have linked VEGF with both IL-6 and p-Stat3 our prior studies by ourselves has shown that C5a induces IL-6 and that IL-6 signaling is interconnected with C3aR/C5aR signaling. To determine if the linkage between VEGF and C3aR/C5aR signaling in ECs involves IL-6, we incubated MS-1 ECs with 1) VEGF-A alone, IL-6 alone, or VEGF-A plus anti-IL-6 mAb, or with 2) IL-6 alone or IL-6 plus C3aR-A/C5aR-A, and assayed cell growth. […] The growth induction of ECs of IL-6, like that of VEGF-A, was abolished by C3aR-A/C5aR-A (FIG. 28). Both VEGF-A and IL-6 induced Stat3 phosphorylation and the Stat3 phosphorylation in both cases was abolished by C3aR/C5aR antagonism (FIG. 29). […] These finding thus indicate that VEGF interconnects with C3aR/C5aR signaling via the induction of IL-6 and its activation of Stat3.

NIH-3T3 cells [1] = experiment: TGF-β1 production and effect in PDGF-AA treated NIH-3T3 cells; format: cell-based
From the text: Antagonizing C3aR/C5aR signal transduction induces the synthesis and activation of TGF-β1. We investigated whether TGF-β1 production might underlie the growth suppression connected with C3aR/C5aR blockade. To test this, 1) we assayed supernatants from NIH-3T3 cells treated with PDGF-AA+anti-C3a/anti-C5a mAbs and 2) following removal of anti-C3a/anti-C5a from the mAb treated NIH-3T3 cell cultures (with protein-G beads), we added supernatants without or with anti-TGF-β1 blocking antibody to fresh cultures of PDGF-AA treated NIH-3T3 cells. […] Activation of latent TGF-β1 can be dependent on Thrombospondin 1 (Tsp-1). […] Collectively, these findings indicate that 1) disruption of C3aR/C5aR signaling evokes TGF-β1 production, 2) TGF-β1 enters into an autocrine signaling loop, and 3) C3aR/C5aR signals and TGF-β1 signals oppose each other in regulating PDGF induced growth.

NIH-3T3 cells [2] = experiment: C5a ELISA of NIH-3T3 culture supernatants; format: cell-based; conditions: PDGF-AA treated cells
Experimental: FIG. 31 illustrates charts showing: (A) C5a (17 ng/mL) added to NIH-3T3 cells. Bars represent 72 hr counts. (B) PDGF-AA was added to NIH-3T3 cells and a 72 hr culture supernatants were assayed for C5a by ELISA.
PDGF contributes to atherogenesis and plays a central role in neointimal proliferation following EC injury. In view of the growth difference of primary cultured Daf1^−/−, WT, C3aR^−/−C5aR^−/−, and C3^−/−C5^−/−SMCs, we examined whether C3aR/C5aR signals are interconnected with PDGF growth induction. For these studies, we utilized NIH-3T3 fibroblasts (which express PDGFR-αα) in conjunction with PDGF-AA. Following determination of optimal PDGF-AA doses, we incubated 1×10^5 cells/well in triplicate with 30 ng/ml of PDGF-AA±10 ng/ml of C3aR and C5aR antagonists (C3aR-A/C5aR-A), 10 ng/ml of anti-C3a/anti-C5a mAbs or respective controls, after which we quantified cell growth by counting cell numbers over time. […] To directly establish whether C5aR signals augment PDGF-AA growth signaling, we 1) quantified the effect of added C5a one growth, and 2) assayed C5a in culture supernatants of PDGF-AA treated cells. […] Because the dependence of PDGF growth induction on C3aR/C5aR signaling could be indirect, i.e., a consequence of its requirement for viability, we performed cell cycle assays.

NC(N)=NCCC[C@H](NC(=O)[C@@H]1CCCN1C(=O)[C@H](N)Cc1ccccc1)C(=O)CCl [PPACK]
proliferation of ECs / VEGF induced EC growth induction (ECs): abolish | T cell activation (T cell): virtually abolish

Cc1cc(C)c(/C=C2\C(=O)Nc3ccccc32)[nH]1 [SU5416]
growth of C3aR−/−C5aR−/− ECs (C3aR−/−C5aR−/− ECs): abolished

ANGIOMAX: thrombin specific inhibitor
proliferation of ECs / VEGF induced EC growth induction (ECs): abolish | T cell activation (T cell): virtually abolish

C3a: complement activation fragment (anaphylatoxin) added to cells
production of AP components by ECs (HUVEC): more AP components | transcription of C3 (HUVEC): increased

IL-6: cytokine added to MS-1 cells (10 ng/ml)
induction of EC growth (MS-1 ECs): comparably to VEGF-A | Stat3 phosphorylation (Stat3): induced

PDGF-AA: platelet derived growth factor, 30 ng/ml
suppression of TGF-β1 mRNA transcription (NIH-3T3 cells [1]; RT-PCR of PDGF-AA treated cells): ~3 fold | C5a generation by NIH-3T3 cells (NIH-3T3 cells [2]): amplified

TGF-β1: active TGF-β1 elicited in supernatants of mAb treated NIH-3T3 cells
suppression of PDGF-AA induced growth (NIH-3T3 cells [1]; elicited TGF-β1 in transferred supernatants): 5 fold
